Results reported in patent publication US9345766B2, “Combination therapies comprising anti-ERBB3 agents” (Merrimack Pharmaceuticals, Inc., priority 2012, dated 2016).

Tested on: phospho-ErbB3 (pErbB3)
Assay type: cell-based
Settings: incubation 15 minutes to 24 hours
Experimental: Cell lysates are probed for phospho-ErbB3 (pErbB3), and phospho-AKT (pAKT) by ELISA as described previously (Schoeberl et al, 2009) Inhibitor IC50 values are calculated by fitting dose-response data to a 4-parameter sigmoidal curve (GraphPad Prism®, GraphPad Software, Inc., La Jolla, Calif.).
Model-generated dose-response curves overlay the experimental data (FIG. 7a). […] Untreated and heregulin-stimulated cells were probed for pErbB3 and pAKT and the IC50 was calculated (FIG. 7b).
Amounts of pAKT and pErbB3 were measured by ELISA essentially as described.

Substance: MM-111: bispecific anti-ErbB2/anti-ErbB3 antibody, scFv HSA conjugate, amino acid sequence SEQ ID NO:1
- ability to inhibit heregulin-induced ErbB3 activation relative to lapatinib: superior to lapatinib by greater than an order of magnitude
